Reference: ChEMBL document CHEMBL4219058, “Discovery of new thienopyrimidine derivatives as potent and orally efficacious phosphoinositide 3-kinase inhibitors” (Bioorg Med Chem, 2018)

Key:
[1] = Effective permeability of the compound measured after 5 hrs by PAMPA; type: ADME; settings: read-out: Peff
[2] = biological target: Phosphatidylinositol 4,5-bisphosphate 3-kinase catalytic subunit gamma isoform (Homo sapiens, UniProt P48736); test: Inhibition of PI3Kgamma (unknown origin) using PIP2 as substrate measured after 1 hr by Kinase-Glo luminescence assay
Sequence of Phosphatidylinositol 4,5-bisphosphate 3-kinase catalytic subunit gamma isoform (P48736 whole entry, canonical isoform): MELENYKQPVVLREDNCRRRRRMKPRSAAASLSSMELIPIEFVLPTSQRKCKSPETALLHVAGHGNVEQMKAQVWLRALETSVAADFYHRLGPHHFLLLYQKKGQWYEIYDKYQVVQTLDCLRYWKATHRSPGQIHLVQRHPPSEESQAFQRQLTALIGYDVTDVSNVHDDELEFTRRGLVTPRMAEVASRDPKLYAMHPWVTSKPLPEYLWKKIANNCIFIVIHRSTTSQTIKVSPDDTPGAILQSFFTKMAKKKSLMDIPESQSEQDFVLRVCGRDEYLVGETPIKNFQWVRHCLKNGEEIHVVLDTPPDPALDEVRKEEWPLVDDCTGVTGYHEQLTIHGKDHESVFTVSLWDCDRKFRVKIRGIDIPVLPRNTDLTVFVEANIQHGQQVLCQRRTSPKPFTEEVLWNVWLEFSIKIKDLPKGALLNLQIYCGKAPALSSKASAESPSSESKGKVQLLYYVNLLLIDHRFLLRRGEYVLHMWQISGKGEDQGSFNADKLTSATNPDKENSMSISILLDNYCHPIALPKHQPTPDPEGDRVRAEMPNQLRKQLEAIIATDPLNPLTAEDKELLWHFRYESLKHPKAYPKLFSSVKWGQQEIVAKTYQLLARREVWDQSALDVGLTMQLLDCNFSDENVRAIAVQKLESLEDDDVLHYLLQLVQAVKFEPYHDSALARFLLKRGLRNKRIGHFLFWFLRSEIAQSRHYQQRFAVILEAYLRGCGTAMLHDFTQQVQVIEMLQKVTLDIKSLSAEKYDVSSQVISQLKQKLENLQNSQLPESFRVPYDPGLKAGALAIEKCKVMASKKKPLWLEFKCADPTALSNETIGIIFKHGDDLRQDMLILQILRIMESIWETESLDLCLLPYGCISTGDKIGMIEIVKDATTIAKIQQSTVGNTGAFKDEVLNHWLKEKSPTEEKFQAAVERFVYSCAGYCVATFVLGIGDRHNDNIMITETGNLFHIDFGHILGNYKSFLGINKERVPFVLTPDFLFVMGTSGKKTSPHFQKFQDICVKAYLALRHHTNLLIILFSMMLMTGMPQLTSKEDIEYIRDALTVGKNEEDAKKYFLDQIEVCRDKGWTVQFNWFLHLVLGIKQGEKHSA

U-87 MG = test: Antiproliferative activity against human U87MG cells after 4 days by Celltiter-Glo luminescence cell viability assay; type: functional, cell-based, U-87MG ATCC; settings: 96 h

| Papp at 5 h [1] | IC50 [2] | IC50 (U-87 MG) | SMILES |
| --- | --- | --- | --- |
| 4.8 ×10⁻⁶ cm/s | – | – | COc1ncc(-c2cc3c(C)nc(N)nc3s2)cc1NS(=O)(=O)c1ccc(F)cc1F |
| 9.6 ×10⁻⁶ cm/s | 11 nM | – | COc1ncc(-c2cc3c(C)nc(NC(C)=O)nc3s2)cc1NS(=O)(=O)c1ccc(F)cc1F |
| – | – | 340 nM | COc1ccc(-c2cc3c(C)nc(N)nc3n([C@H]3CC[C@H](OCCO)CC3)c2=O)cn1 [PF-04691502] |
